Measurements reported in patent US20040229933A1, “Treatment of hypertension” (Pfizer Inc, priority 2003, published 2004).
Ends that are not written are not given here.

Legend:
GPR54 = GPR54 (Homo sapiens, UniProt Q969F8); settings: cited from earlier work
rat aortic rings = test: Isolated rat aorta assay (organ bath, aortic rings); settings: organ bath system
Description: Segments of endothelium intact rat aorta were trim cleaned of fat and surrounding connective tissues and aortic rings strung up in 5 ml organ baths and perfused with oxygenated modified Kreb's solution (118 mM NaCl, 4.7 mM KCl, 25 mM NaHCO3, 11.1 mM glucose, 1.18 mM KH2PO4, 1.18 mM MgSO4 and 2mM CaCl2). Following an equilibration period of approximately 60 min, tissues were challenged with 1 μM phenylephrine (PE). Following a stable response tissues were washed and the above dose of PE was repeated. Once the tissues reached a maximum response 1 μM acetylcholine was administered to determine the percentage of endothelium dependent relaxation. Tissues were washed and cumulative concentration response curves were constructed to Kiss-1 and urotensin-II for a comparison. […] The potential for Kiss-1 mediated vasorelaxation was assessed in aortic rings pre-constricted with 300 nM noradrenaline along with appropriate control tissues with no drug. Drug potency (EC50) and efficacy (Emax) was determined.
Rat aortic rings are set up as described before for measuring Kiss-1 potency and efficacy in a 5 ml organ bath set-up. The potency of antagonist can be determined by constructing a dose response curve to Kiss-1 in the presence of a single concentration of Kiss-1 antagonist or vehicle. […]

[1] = test system: CHO cells transfected with GPR54; settings: cited from earlier work

Sequence of GPR54 (Q969F8 whole entry, species assumed): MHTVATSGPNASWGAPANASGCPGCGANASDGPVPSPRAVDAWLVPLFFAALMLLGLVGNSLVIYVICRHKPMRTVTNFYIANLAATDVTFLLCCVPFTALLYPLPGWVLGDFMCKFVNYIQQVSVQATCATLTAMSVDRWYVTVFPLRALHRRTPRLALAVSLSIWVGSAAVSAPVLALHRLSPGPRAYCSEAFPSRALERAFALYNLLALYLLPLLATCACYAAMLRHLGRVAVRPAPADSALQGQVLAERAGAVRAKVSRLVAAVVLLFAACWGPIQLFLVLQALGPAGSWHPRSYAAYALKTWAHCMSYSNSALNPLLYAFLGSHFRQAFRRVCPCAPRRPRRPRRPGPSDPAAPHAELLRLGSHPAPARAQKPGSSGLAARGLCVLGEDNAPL

Kiss-1 (40-54): C-terminal fragment of Kiss-1 (KDLPNYNWNSFGLRF-NH2; UniProt Q15726 107-121, looked up, fragment)
agonist activity at GPR54 (GPR54): potent agonists

Kiss-1 (45-54): C-terminal fragment of Kiss-1, derived from the 54 amino acid Kiss peptide sequence; Kiss-1 receptor agonist (YNWNSFGLRF-NH2; UniProt Q15726 112-121, looked up, fragment)
vasoconstriction (rat aortic rings): vasoconstriction

Kiss-1: carboxy-terminally amidated peptide with 54 amino acid residues, also called metastin, isolated from human placenta (GTSLSPPPESSGSPQQPGLSAPHSRQIPAPQGAVLVQREKDLPNYNWNSFGLRF-NH2; UniProt Q15726 68-121, looked up)
migration, chemotaxis and invasion [1]: inhibits migration, chemotaxis and invasion
agonist activity at GPR54 (GPR54): potent agonists
vasoconstriction (rat aortic rings): potent vasoconstrictor
